Assay: in vitro
Conditions: human, hela cells, % viability

| Structure (SMILES) | viability at 28.5 h, 10 µM [%] |
| --- | --- |
| C[C@H]1[C@@H]2[C@H]3OC(=O)[C@@H](C)[C@@H]3CC[C@@]2(C)CC[C@@H]1NC(=O)c1ccccn1 [CBK289452] | 107 |
| C[C@H]1[C@@H]2[C@@H](O)C([C@H](C)C(=O)NC3CC3)CC[C@@]2(C)CC[C@@H]1NC(=O)c1cncnc1 (some centres unmarked) [CBK289453] | 91.5 |
| CC(C)NC(=O)[C@@H](C)C1CC[C@@]2(C)CC[C@H](NC(=O)c3cncnc3)[C@@H](C)[C@@H]2[C@H]1O (some centres unmarked) [CBK289454] | 103 |
| CCNC(=O)N[C@H]1CC[C@]2(C)CCC([C@H](C)C(=O)N3CCCC3)[C@H](O)[C@H]2[C@@H]1C (some centres unmarked) [CBK289456] | 116 |
| Cc1noc(C)c1C(=O)N[C@H]1CO[C@H]2[C@@H]1OC[C@H]2OCc1ccccc1 [CBK289458] | 96.7 |
| COc1ccc(C(=O)N[C@H]2CO[C@H]3[C@@H]2OC[C@H]3OC(=O)Nc2ccccc2)cc1 [CBK289463] | 103 |
| O=C(Nc1ccccc1)O[C@@H]1CO[C@H]2[C@@H]1OC[C@@H]2NC(=O)C1CC1 [CBK289464] | 88 |
| O=C(Nc1cccc2ccccc12)O[C@@H]1CO[C@H]2[C@@H]1OC[C@@H]2NC(=O)c1cccs1 [CBK289468] | 103 |
| CC(=O)N[C@H]1CO[C@H]2[C@@H]1OC[C@H]2OC(=O)Nc1ccc(Oc2ccccc2)cc1 [CBK289470] | 113 |
| CC(C)c1ccc(NC(=O)O[C@@H]2CO[C@H]3[C@@H]2OC[C@@H]3NC(=O)C2CC2)cc1 [CBK289471] | 99 |
| CCNC(=O)O[C@@H]1CO[C@H]2[C@@H]1OC[C@@H]2NC(=O)c1ccc(C)cc1 [CBK289472] | 106 |
| O=C(Nc1cccc(C(F)(F)F)c1)N[C@H]1CO[C@H]2[C@@H]1OC[C@H]2O [CBK289476] | 102 |
| Cc1ccc(S(=O)(=O)N[C@H]2CO[C@H]3[C@@H]2OC[C@H]3O)cc1 [CBK289477] | 98.4 |
| O=S(=O)(N[C@H]1CO[C@H]2[C@@H]1OC[C@H]2O)c1ccc(Cl)cc1 [CBK289478] | 87.7 |
| CC(C)c1ccc(NC(=O)O[C@@H]2CO[C@H]3[C@@H]2OC[C@@H]3NC(=O)c2cncnc2)cc1 [CBK289480] | 105 |
| CN(C)c1ccc(-c2nnnn2[C@H]2CO[C@H]3[C@@H]2OC[C@H]3O)cc1 [CBK289481] | 76.7 |
| O=C(N[C@H]1CO[C@H]2[C@@H]1OC[C@@H]2n1nnnc1-c1ccccc1)c1ccccc1 [CBK289482] | 120 |
| CC(=O)N[C@H]1CO[C@H]2[C@@H]1OC[C@@H]2n1nnnc1-c1ccccc1 [CBK289483] | 87.1 |
| CCNC(=O)N[C@H]1CO[C@H]2[C@@H]1OC[C@@H]2n1nnnc1Oc1ccccc1 [CBK289484] | 102 |
| CC(=O)N[C@H]1CO[C@H]2[C@@H]1OC[C@@H]2n1nnnc1Oc1ccc(-n2ccnc2)cc1 [CBK289487] | 104 |
| COCc1cn([C@H]2CO[C@H]3[C@@H]2OC[C@H]3OC(=O)Nc2ccc(C)cc2)nn1 [CBK289489] | 90.6 |
| COC(=O)c1cn([C@H]2CO[C@H]3[C@@H]2OC[C@H]3OC(=O)Nc2ccccc2)nn1 [CBK289492] | 91.4 |
| COCc1cn([C@H]2CO[C@H]3[C@@H]2OC[C@@H]3NC(=O)Nc2ccc(OC)cc2)nn1 [CBK289495] | 107 |
| COC(=O)c1cn([C@H]2CO[C@H]3[C@@H]2OC[C@@H]3NC(=O)C2CC2)nn1 [CBK289497] | 86 |

| Structure (SMILES) | viability at 28.5 h, 10 µM [%] |
| --- | --- |
| COC(=O)c1cn([C@H]2CO[C@H]3[C@@H]2OC[C@@H]3NS(=O)(=O)Cc2ccccc2)nn1 [CBK289498] | 86.9 |
| COC(=O)c1cn([C@H]2CO[C@H]3[C@@H]2OC[C@@H]3NC(=O)Nc2ccc(OC)cc2)nn1 [CBK289500] | 94.2 |
| O=C(N[C@H]1CO[C@H]2[C@@H]1OC[C@@H]2n1cc(-c2ccccc2)nn1)N1CCOCC1 [CBK289503] | 87.7 |
| O=C(NC1CCCCC1)N[C@H]1CO[C@H]2[C@@H]1OC[C@@H]2n1cc(-c2ccccc2)nn1 [CBK289505] | 84.6 |
| COc1ccc(NC(=O)N[C@H]2CO[C@H]3[C@@H]2OC[C@@H]3n2cc(-c3ccccc3)nn2)cc1 [CBK289506] | 106 |
| O=C(N[C@H]1CO[C@H]2[C@@H]1OC[C@@H]2n1cc(-c2ccccn2)nn1)c1ccc(C(F)(F)F)cc1 [CBK289507] | 89.7 |
| O=C(N[C@H]1CO[C@H]2[C@@H]1OC[C@@H]2n1cc(CC2CCCCC2)nn1)C1CC1 [CBK289509] | 92.2 |
| COc1cccc(-c2nnnn2[C@H]2CO[C@H]3[C@@H]2OC[C@@H]3NC(=O)c2ccc(C)cc2)c1 [CBK289512] | 94.1 |
| O=C(N[C@H]1CO[C@H]2[C@@H]1OC[C@@H]2Nc1nccc(-c2cccs2)n1)c1ccccc1 [CBK289516] | 84.5 |
| O=C(N[C@H]1CO[C@H]2[C@@H]1OC[C@@H]2Nc1nccc(-c2cccs2)n1)C1CC1 [CBK289517] | 95 |
| O=C(N[C@H]1CO[C@H]2[C@@H]1OC[C@@H]2Nc1nccc(-c2cccs2)n1)c1cccs1 [CBK289518] | 106 |
| CC(C)(C)c1ccnc(N[C@H]2CO[C@H]3[C@@H]2OC[C@@H]3NC(=O)c2cccs2)n1 [CBK289520] | 94.8 |
| CC(C)(C)c1ccnc(N[C@H]2CO[C@H]3[C@@H]2OC[C@@H]3NS(=O)(=O)Cc2ccccc2)n1 [CBK289521] | 91.4 |
| CC(C)(C)c1ccnc(N[C@H]2CO[C@H]3[C@@H]2OC[C@@H]3NC(=O)NCc2ccccc2)n1 [CBK289522] | 87.3 |
| CS(=O)(=O)N[C@H]1CO[C@H]2[C@@H]1OC[C@@H]2Nc1nccc(-c2ccco2)n1 [CBK289525] | 96.4 |
| COc1ccc(-c2ccnc(N[C@H]3CO[C@H]4[C@@H]3OC[C@@H]4NC(=O)c3ccccc3)n2)cc1 [CBK289526] | 83.5 |
| COc1ccc(-c2ccnc(N[C@H]3CO[C@H]4[C@@H]3OC[C@@H]4NC(=O)C3CCCCC3)n2)cc1 [CBK289527] | 88.9 |
| CO[C@@H]1CO[C@H]2[C@@H]1OC[C@@H]2Nc1nccc(-c2cccc(C#N)c2)n1 [CBK289532] | 79.8 |
| CC(=O)N[C@H]1CO[C@H]2[C@@H]1OC[C@@H]2Nc1nccc(-c2cccc(F)c2)n1 [CBK289534] | 99.3 |
| O=C(N[C@H]1CO[C@H]2[C@@H]1OC[C@@H]2Nc1nccc(-c2cccc(F)c2)n1)C1CC1 [CBK289535] | 99.2 |
| CCNC(=O)N[C@H]1CO[C@H]2[C@@H]1OC[C@@H]2Nc1nccc(-c2cccc(F)c2)n1 [CBK289536] | 91.1 |
| O=C(N[C@H]1CCN2C(=O)[C@H]3CCCN3C(=O)[C@@H]2C1)c1cccs1 [CBK289538] | 106 |
| CC(C)NC(=O)N[C@H]1CCN2C(=O)N(c3cccc4nsnc34)C(=O)[C@@H]2C1 [CBK289539] | 111 |
| CC(C)c1ccc(N2C(=O)[C@@H]3C[C@@H](NC(=O)c4cccs4)CCN3C2=O)cc1 [CBK289541] | 93.1 |

| Structure (SMILES) | viability at 28.5 h, 10 µM [%] |
| --- | --- |
| CC(C)c1ccc(N2C(=O)[C@@H]3C[C@@H](NC(=O)c4ccnc(Cl)c4)CCN3C2=O)cc1 [CBK289544] | 102 |
| CC(C)c1ccc(N2C(=O)[C@@H]3C[C@@H](NC(=O)c4cccn4C)CCN3C2=O)cc1 [CBK289547] | 92.3 |
| Cn1cccc1C(=O)N[C@H]1CCN2C(=O)N(c3ccc(OC(F)(F)F)cc3)C(=O)[C@@H]2C1 [CBK289548] | 94.7 |
| Cn1cccc1C(=O)N[C@H]1CCN2C(=O)N(c3cccc(F)c3)C(=O)[C@@H]2C1 [CBK289549] | 88.8 |
| O=C(N[C@H]1CCN2C(=O)N(c3cccc(C(F)(F)F)c3)C(=O)[C@@H]2C1)c1ccncc1 [CBK289552] | 98.7 |
| C=CCO[C@@H]1C[C@H]2C(=O)N3CC[C@H](NC(=O)[C@@H](O)c4ccccc4)C[C@H]3C(=O)N2C1 [CBK289556] | 89.6 |
| O=C(N[C@H]1CCN2C(=O)c3cc(-c4ccccc4F)ccc3NC(=O)[C@@H]2C1)c1cnccn1 [CBK289558] | 118 |
| O=C(N[C@H]1CCN2C(=O)c3cc(-c4cccs4)ccc3NC(=O)[C@@H]2C1)c1cnccn1 [CBK289559] | 106 |
| COCC(=O)N[C@H]1CCN2C(=O)c3cc(-c4ccc(F)cc4F)ccc3NC(=O)[C@@H]2C1 [CBK289561] | 78.6 |
| COc1ccc(C(=O)N[C@H]2CCN3C(=O)c4ccc(Cl)cc4NC(=O)[C@@H]3C2)cc1 [CBK289564] | 84.5 |
| CS(=O)(=O)N[C@H]1CCN2C(=O)c3cc(-c4ccc(Cl)cc4)ccc3NC(=O)[C@@H]2C1 [CBK289565] | 95.3 |
| Cc1cccc(-c2ccc3c(c2)C(=O)N2CC[C@H](NC(=O)NC(C)C)C[C@H]2C(=O)N3)c1C [CBK289567] | 97.9 |
| CC(C)NC(=O)C[C@@H]1c2nc(-c3ccccc3)sc2C[C@@H]2[C@](C)(CO)[C@H](O)CC[C@]21C [CBK289570] | 90.6 |
| Cc1nc2c(s1)C[C@@H]1[C@](C)(CO)[C@H](O)CC[C@@]1(C)[C@@H]2CC(=O)O [CBK289571] | 93.3 |
| COc1ccc(CNC(=O)C[C@@H]2[C@H](O)CCC3[C@]4(C)CO[C@@H](CN)O[C@@H]4CC[C@]32C)cc1 (some centres unmarked) [CBK289575] | 109 |
| COc1cccc(NC(=O)O[C@@H]2CC[C@]3(C)C(CC[C@H]4OC(=O)C[C@H]43)[C@]2(C)CO)c1 (some centres unmarked) [CBK289576] | 95.2 |
| COC(=O)[C@@H]1CN(C(=O)c2ccc(OC)cc2)CCN1C(C)=O [CBK289578] | 97.5 |
| O=C(O)CCCC(=O)N1CCN2C(=O)c3cc(Br)ccc3NC(=O)[C@@H]2C1 [CBK289581] | 100 |
| COCC(=O)N1CCN2C(=O)c3ccccc3NC(=O)[C@@H]2C1 [CBK289582] | 90.6 |
| COc1ccc(-c2ccc3c(c2)C(=O)N2CCN(C(=O)CC(C)(C)C)C[C@@H]2C(=O)N3)cc1 [CBK289584] | 94.6 |
| COCC(=O)N1CCN2C(=O)c3cc(-c4ccccc4F)ccc3NC(=O)[C@H]2C1 [CBK289587] | 82.4 |
| O=C1Nc2ccc(-c3ccccc3F)cc2C(=O)N2CCN(C(=O)C3CCNCC3)C[C@H]12 [CBK289592] | 87.3 |
| O=C1Nc2ccc(-c3ccc4c(c3)OCO4)cc2C(=O)N2CCN(C(=O)CO)C[C@H]12 [CBK289593] | 85.6 |

Reference: paper PMC12040169 (PLOS Biology, 2025)
